This assay deals with P388 leukemia ip, CD2F1 mice, survival T/C. The assay is described as follows: NCI In Vivo Anticancer Drug Screen. Data for tumor model P388 Leukemia (intraperitoneal) in CD2F1 (CDF1) mice. The conditions noted are these: endpoint: median survival time, higher = longer survival. Put shortly: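 Mice carrying the transplanted tumor received test compound or vehicle. Survival was recorded in each group, and the value is the treated-group measurement divided by that of the vehicle-treated control group.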

[1] abbreviates: dose: 50.0 mg/kg/injection, schedule: Q01DX005 (ip), vehicle: Klucel (hydroxypropylcellulose) (HPC).
The mark [2] stands for this setting: dose: 100.0 mg/kg/injection, schedule: Q01DX005 (ip), vehicle: Klucel (hydroxypropylcellulose) (HPC).
Setting [3] is: dose: 200.0 mg/kg/injection, schedule: Q01DX005 (ip), vehicle: Klucel (hydroxypropylcellulose) (HPC).
Where [4] appears, read: dose: 50.0 mg/kg/injection, schedule: Q01DX009 (ip), vehicle: saline.
Where [5] appears, read: dose: 100.0 mg/kg/injection, schedule: Q01DX009 (ip), vehicle: saline.
Where [6] appears, read: dose: 200.0 mg/kg/injection, schedule: Q01DX009 (ip), vehicle: saline.
Where [7] appears, read: dose: 60.0 mg/kg/injection, schedule: Q01DX005 (ip), vehicle: saline with Tween-80.
[8] abbreviates: dose: 120.0 mg/kg/injection, schedule: Q01DX005 (ip), vehicle: saline with Tween-80.
[9] abbreviates: dose: 50.0 mg/kg/injection, schedule: Q01DX005 (ip), vehicle: saline with Tween-80.
[10] abbreviates: dose: 100.0 mg/kg/injection, schedule: Q01DX005 (ip), vehicle: saline with Tween-80.
The mark [11] stands for this setting: dose: 200.0 mg/kg/injection, schedule: Q01DX005 (ip), vehicle: saline with Tween-80.
[12] abbreviates: dose: 60.0 mg/kg/injection, schedule: Q01DX005 (ip), vehicle: saline.
[13] abbreviates: dose: 120.0 mg/kg/injection, schedule: Q01DX005 (ip), vehicle: saline.
Setting [14] is: dose: 240.0 mg/kg/injection, schedule: Q01DX005 (ip), vehicle: saline.

Values joined by “and” are separate entries in the source; they are usually repeats but may differ in a detail not shown here. Identical values can stand only once. Inconclusive results and toxic doses are left out.

Consider `COc1ccc2c(c1OC(C)=O)C1=CC(OC(C)=O)=CCC13CCN(C)C3C2` (stereo not given), for which the T/C reads like this: (dose: 50.0 mg/kg/injection, schedule: Q01DX005 (ip), vehicle: saline) 102 % of control; (dose: 100.0 mg/kg/injection, schedule: Q01DX005 (ip), vehicle: saline) 111 % of control; (dose: 200.0 mg/kg/injection, schedule: Q01DX005 (ip), vehicle: saline) 99 % of control.

Regarding `CCCCN1C(=O)CC(SC2CC(=O)N(CCCC)C2=O)C1=O` (stereo not given), the T/C was 97 % of control under setting [1], 86 % of control under setting [2] and 103 % of control under setting [3].

As to `CC(CNC(=O)CCOS(C)(=O)=O)CNC(=O)CCOS(C)(=O)=O`, the T/C runs as follows: (dose: 6.25 mg/kg/injection, schedule: Q01DX009 (ip), vehicle: saline) 105 % of control; (dose: 12.5 mg/kg/injection, schedule: Q01DX009 (ip), vehicle: saline) 106 % of control; (dose: 25.0 mg/kg/injection, schedule: Q01DX009 (ip), vehicle: saline) 100 % of control; under setting [4], 102 % of control.

In the case of `CC(=O)NC(N)=NC#N`, the T/C is 98 % of control (dose: 50.0 mg/kg/injection, schedule: Q01DX001 (ip), vehicle: saline); 100 % of control (dose: 100.0 mg/kg/injection, schedule: Q01DX001 (ip), vehicle: saline); 96 % of control (dose: 200.0 mg/kg/injection, schedule: Q01DX001 (ip), vehicle: saline); 103 % of control (dose: 400.0 mg/kg/injection, schedule: Q01DX001 (ip), vehicle: saline).

`N#CC1=C(C#N)CC(c2ccccc2)CC1` (stereo not given): the T/C by setting is: under setting [4], 104 % of control; under setting [5], 100 % of control; under setting [6], 96 % of control.

Regarding `COc1ccc2c(c1)CCc1c(-c3noc4c3CCc3cc(OC)ccc3-4)noc1-2`, the T/C reads like this: (dose: 60.0 mg/kg/injection, schedule: Q01DX005 (ip), vehicle: Klucel + Tween-80) 92 % of control; (dose: 120.0 mg/kg/injection, schedule: Q01DX005 (ip), vehicle: Klucel + Tween-80) 96 % of control; (dose: 240.0 mg/kg/injection, schedule: Q01DX005 (ip), vehicle: Klucel + Tween-80) 100 % of control.

As to `COc1ccc(CC(N)c2ccc(OC)c(OC)c2)cc1O` (stereo not given), the T/C under setting [7] was 114 % of control; the T/C under setting [8] is 100 % of control; the T/C (dose: 240.0 mg/kg/injection, schedule: Q01DX005 (ip), vehicle: saline with Tween-80) was 97 % of control.

As for `CCCNC(=O)Nc1cc(Cl)ccc1OC`, the T/C runs as follows: (dose: 132.0 mg/kg/injection, schedule: Q04DX003 (ip), vehicle: saline with Tween-80) 100 % of control; (dose: 200.0 mg/kg/injection, schedule: Q04DX003 (ip), vehicle: saline with Tween-80) 100 % of control; (dose: 300.0 mg/kg/injection, schedule: Q04DX003 (ip), vehicle: saline with Tween-80) 100 % of control.

Regarding `O=C1c2ccccc2C(=O)N1OCc1cccc(C(F)(F)F)c1`, the T/C reads like this: under setting [1], 98 % of control; under setting [2], 90 % of control; under setting [3], 86 % of control.

Take `O=C(CCCc1ccccc1)N1CCOCC1`: the T/C was 90 % of control (dose: 50.0 mg/kg/injection, schedule: Q01DX001 (ip), vehicle: saline sonified); 109 % of control (dose: 100.0 mg/kg/injection, schedule: Q01DX001 (ip), vehicle: saline sonified); 100 % of control (dose: 200.0 mg/kg/injection, schedule: Q01DX001 (ip), vehicle: saline sonified).

`COC(=O)C1=C(C(=O)OC)[C](C(=O)c2ccccc2)([Sn]([CH3])([CH3])[CH3])N=N1` (stereo not given): the T/C is, setting by setting: (dose: 0.78 mg/kg/injection, schedule: Q01DX009 (ip), vehicle: saline) 92 % of control; (dose: 1.56 mg/kg/injection, schedule: Q01DX009 (ip), vehicle: saline) 89 % of control; (dose: 3.12 mg/kg/injection, schedule: Q01DX009 (ip), vehicle: saline) 93 % of control.

On to `COC1/C=C/OC2(C)Oc3c(C)c(O)c4c(c3C2=O)C(=O)C(CO)=C(NC(=O)/C(C)=C\C=C\C(C)C(O)C(C)C(O)C(C)C(OC(C)=O)C1C)C4=O` (stereo not given), for which the T/C (dose: 50.0 mg/kg/injection, schedule: Q01DX009 (ip), vehicle: saline with Tween-80) is 104 % of control; the T/C (dose: 100.0 mg/kg/injection, schedule: Q01DX009 (ip), vehicle: saline with Tween-80) is 99 % of control; the T/C (dose: 200.0 mg/kg/injection, schedule: Q01DX009 (ip), vehicle: saline with Tween-80) was 112 % of control.

Regarding `CCN=C(c1ccc(NC(=O)c2ccc(C(=O)Nc3ccc(C(=NCC)N(CC)CC)cc3)c(Cl)c2)cc1)N(CC)CC`, the T/C is 104 % of control (dose: 0.05 mg/kg/injection, schedule: Q01DX005 (ip), vehicle: saline); 87 % of control (dose: 0.09 mg/kg/injection, schedule: Q01DX005 (ip), vehicle: saline); 97 % of control (dose: 0.19 mg/kg/injection, schedule: Q01DX005 (ip), vehicle: saline); 102 % of control and 97 % of control (dose: 0.39 mg/kg/injection, schedule: Q01DX005 (ip), vehicle: saline).

As for `CNc1ccccc1C(=O)NNC(=O)Nc1ccccc1C(F)(F)F`, the T/C under setting [9] was 98 % of control, the T/C under setting [10] was 100 % of control and the T/C under setting [11] was 111 % of control.

As for `Nc1cc(C(F)(F)F)cc(N)c1N`, the T/C under setting [9] is 104 % of control, the T/C under setting [10] was 94 % of control and the T/C under setting [11] was 99 % of control.

`NC(=O)[C@@H]1CCCN1C(=O)c1cccnc1`: the T/C runs as follows: under setting [12], 98 % of control; under setting [13], 97 % of control; under setting [14], 103 % of control.

`FC(F)(F)c1ccc(Cl)c(NC(=S)SC2CCCCC2)c1`: the T/C runs as follows: under setting [4], 100 % of control; under setting [5], 100 % of control; under setting [6], 97 % of control.

For `COc1ccc(/C=C/C(=N/Nc2ccccc2)C(C)CN(C)C)cc1` (stereo not given), the T/C under setting [7] was 101 % of control and the T/C under setting [8] is 95 % of control.

Take `COc1c(I)c2c(c(OC)c1OC)-c1ccc(OC)c(=O)cc1C(NC(C)=O)CC2` (stereo not given): the T/C reads like this: (dose: 6.25 mg/kg/injection, schedule: Q01DX009 (ip), vehicle: Klucel (hydroxypropylcellulose) (HPC)) 178 % of control; (dose: 12.5 mg/kg/injection, schedule: Q01DX009 (ip), vehicle: Klucel (hydroxypropylcellulose) (HPC)) 167 % of control.

On to `CCOc1cccc(C=NCCS)c1O`, for which the T/C under setting [9] was 92 % of control, the T/C under setting [10] was 90 % of control and the T/C under setting [11] is 86 % of control.

As for `N=C(N)c1ccc2oc(/C=C/c3cc4ccc(C(=N)N)cc4o3)cc2c1`, the T/C (dose: 400.0 mg/kg/injection, schedule: Q04DX003 (ip), vehicle: suspension in saline) is 150 % of control.

Take `CCC(=O)Nc1nnc(SCCCCCCSc2nnc(NC(=O)CC)s2)s1`: the T/C by setting is: under setting [1], 90 % of control; under setting [2], 88 % of control; under setting [3], 91 % of control.

On to `C[C@H](N)C(=O)NCCNC(=O)[C@H](C)N`, for which the T/C by setting is: under setting [12], 96 % of control; under setting [13], 107 % of control; under setting [14], 105 % of control.

On to `S=C1CC(c2ccc(Sc3ccccc3)cc2)=Nc2ccccc2N1`, for which the T/C was 90 % of control (dose: 25.0 mg/kg/injection, schedule: Q01DX009 (ip), vehicle: Klucel (hydroxypropylcellulose) (HPC)); 90 % of control (dose: 50.0 mg/kg/injection, schedule: Q01DX009 (ip), vehicle: Klucel (hydroxypropylcellulose) (HPC)); 99 % of control and 87 % of control (dose: 100.0 mg/kg/injection, schedule: Q01DX009 (ip), vehicle: Klucel (hydroxypropylcellulose) (HPC)); 100 % of control (dose: 200.0 mg/kg/injection, schedule: Q01DX009 (ip), vehicle: Klucel (hydroxypropylcellulose) (HPC)).

In the case of `CC1CC(C)CN(S(=O)(=O)c2cc(Cl)c(Oc3ccc([N+](=O)[O-])cc3Cl)c(Cl)c2)C1` (stereo not given), the T/C reads like this: (dose: 60.0 mg/kg/injection, schedule: Q01DX005 (ip), vehicle: Klucel (hydroxypropylcellulose) (HPC)) 101 % of control; (dose: 120.0 mg/kg/injection, schedule: Q01DX005 (ip), vehicle: Klucel (hydroxypropylcellulose) (HPC)) 100 % of control; (dose: 240.0 mg/kg/injection, schedule: Q01DX005 (ip), vehicle: Klucel (hydroxypropylcellulose) (HPC)) 110 % of control.

(Values after PubChem BioAssay AID330 (DTP/NCI, 2004).)
